# Measured values as given in patent publication US6365379B1, “Zinc finger peptide cleavage of nucleic acids” (ISIS Pharmaceuticals, Inc., priority 1998, dated 2002).
# Legend:
# Assay type in all cases: biochemical
# [1] = test system: 12079 (2′-OMe) single stranded oligonucleotide, SEQ ID 3; assay: Initial rate of cleavage of single stranded oligonucleotide by the finger peptide; design: unit not given here; conditions: substrate 12079 (2′-OMe); 50 nM wild-type peptide, 500 nM oligonucleotide
# Description: (§1) FIG. 1A depicts the Kinetics of RNA Cleavage by the Finger Peptide of Seq. I.D. No. 1. Multiple turnover kinetics are shown for RNA cleavage by the wild-type peptide (open box) and wild-type peptide coordinated with zinc (open triangle). […] I.D. No. 1. Multiple turnover kinetics were performed in 100 μL containing 50 nM peptide, 100 to 1000 nM or a 20—mer RNA oligonucleotide denominated 9713 and having Seq. I.D. No. 7, as […] 32P labeled RNA in 20 mM Sodium Phosphate, pH 7.0, 100 mM KCl, 1 mM EDTA, and 0.1% NP40. Digestion reaction were incubated at 37° C. and quenched at specific time points in 6 M urea. Digestion products were analyzed by denaturing polyacrylamide gel electrophoresis. […] Single turnover kinetics were performed as described above with the exception that peptide ranging in concentration from 50 to 500 nM was added to 50 nM of the 9713 RNA, Seq. I.D. No. 7.
# (§2) Initial rates of cleavage of several single stranded oligonucleotides were determined as described in connection with FIG. 1 with the exception that 50 nM wild-type peptide and 500 nM oligonucleotide were used. Arrows indicate the position of the peptide induced cleavage. The relative intensity of the cleavage product for each respective cleavage sites is indicated by the length of the arrows.
# [2] = test system: 12147 (RNA) single stranded oligonucleotide, SEQ ID 6; assay: as above; design: unit not given here; conditions: substrate 12147 (RNA); 50 nM wild-type peptide, 500 nM oligonucleotide
# Description: as §1, §2
# [3] = test system: 2755 (RNA) single stranded oligonucleotide, SEQ ID 5; assay: as above; design: unit not given here; conditions: substrate 2755 (RNA); 50 nM wild-type peptide, 500 nM oligonucleotide
# Description: as §1, §2
# [4] = test system: 3058 (RNA) single stranded oligonucleotide, SEQ ID 4; assay: as above; design: unit not given here; conditions: substrate 3058 (RNA); 50 nM wild-type peptide, 500 nM oligonucleotide
# Description: as §1, §2
# [5] = test system: 4701 (DNA) single stranded oligonucleotide, SEQ ID 2; assay: as above; design: unit not given here; conditions: substrate 4701 (DNA); 50 nM wild-type peptide, 500 nM oligonucleotide
# Description: as §1, §2
# [6] = test system: 9713 (RNA) 20-mer RNA oligonucleotide, Seq. I.D. No. 7; assay: Initial rate of cleavage of single stranded oligonucleotide by the peptides; design: unit not given here
# Description: as §1
# Initial rates of cleavage of several single stranded oligonucleotides were determined as described in connection with FIG. 1 with the exception that 50 nM wild-type peptide and 500 nM oligonucleotide were used. […]
# I.D. No. 1. […] Reactions were quenched at 30 min. and digestion products analyzed by denaturing polyacrylamide gel electrophoresis.
# Initial rates were determined as described in connection with FIG. 2. Peptide structure was determined by SDS PAGE and LC-MS.
# [7] = test system: 20-mer RNA oligonucleotide 9713, Seq. I.D. No. 7; assay: Multiple turnover kinetics of RNA cleavage, Lineweaver-Burk analysis; conditions: zinc-free form of the finger peptide
# Description: as §1
# single stranded RNA = assay: RNA cleavage (ribonuclease) activity of the peptides
# Description: as §1
# (§3) I.D. No. 1. Digestion reactions were performed as described in FIG. 1 in the presence of either Mg2+ (solid) or Mn2+ (hashed). Reactions were quenched at 30 min. and digestion products analyzed by denaturing polyacrylamide gel electrophoresis.
# RNA [8] = assay: pH dependence of RNA cleavage; conditions: bell shaped pH profile, pH 4 to 9
# Description: I.D. No. 1. Initial rates were determined as described in connection with FIG. 2. For each rate determination the pH was adjusted using either 20 mM sodium acetate, pH 4, 20 mM sodium phosphate, pH 5 to pH 8 or 20 mM sodium carbonate, pH 9.
# RNA [9] = assay: Effect of divalent cations on RNA cleavage activity; conditions: Mg2+ and Mn2+
# Description: as §3
# [10] = test system: Single strand DNA, double strand RNA and DNA, and 2′-methoxy modified sequences; assay: Cleavage selectivity against other nucleic acids
# Description: as §2
# [11] = test system: RNA substrate 9713, Seq. I.D. No. 7; assay: Cleavage product analysis of RNA substrate
# From the text: FIG. 3A presents a schematic cleavage product analysis of RNA aubstrate. RNA substrate 9713, Seq. I.D. No. 7, was internally labeled at the penultimate 3′ phosphate using (^32P) cytidine bisphosphate and T4 RNA ligase. The 3′ terminal phosphate was removed using calf intestinal phosphatase and the RNA digested with the wild type peptide as described in the schematic of FIG. 3A. The digestion reactions were divided into equal aliquots and one aliquot subjected to an additional dephosphorylation. The digested products were analyzed by denaturing polyacrylamide gel electrophoresis.
substance,measurement,setting,value
HOOC-KTYQCQYCEY RSADSSNLKTHIKTKHSKEK-NH2 [Wild type],V0,[1],0
same,V0,[2],1200
same,V0,[3],422
same,V0,[4],153
same,V0,[5],0
same,V0,"[6]; substrate 9713 (RNA), 50 nM wild-type peptide, 500 nM oligonucleotide",6100
same,V0 (9713),"[6]; substrate 9713 RNA, wild type and mutant peptides",6000 ± 130
same,Kcat,[7],0.96 s⁻¹
same,Km,[7],0.105 µM
same,V0,[7],6 nmol/L/min
same,cleavage site specificity within single stranded RNA,single stranded RNA,preferentially cleave 5′-pyr-A-3′
same,cleavage rate of RNA sequences containing 5′-pyr-A-3′ relative to those without,single stranded RNA; fold faster,10-30 fold
same,ribonuclease activity on coordination of the peptide with zinc,single stranded RNA; peptide coordinated with zinc,complete loss of ribonuclease activity
same,pH for RNA cleavage,RNA [8],7.0
same,requirement of divalent cations for catalysis,RNA [9],not to be required for catalysis
same,hydrolysis of non single strand RNA substrates,[10]; listed as SEQ ID No. 1,not hydrolyzed
same,hydrolysis of non single strand RNA substrates,[10]; listed as the peptide,not degraded
same,termini of RNA cleavage products,[11]; listed as SEQ ID No. 1,3′-phosphate and 5′-hydroxyl
same,termini of RNA cleavage products,[11]; listed as wild type peptide,3′-phosphate and 5′-hydroxyl termini
